Source: ChEMBL document CHEMBL5365536, “Synthesis of mizoribine prodrugs and their in vivo evaluation as immunosuppressive agents” (2023)

Columns and labels:
Type in all cases: functional
Mus musculus [1] = experiment: Immunosuppressive activity in anti-CD3-stimulated mouse assessed as reduction in IL-2 level in whole blood at 50 mg/kg, po measured after 4 hrs by flow cytometry analysis; design: scale not given: the % may be the effect or the level left
Mus musculus [2] = experiment: Immunosuppressive activity in anti-CD3-stimulated mouse assessed as reduction in IL-2 level in whole blood at 50 mg/kg, po measured after 8 hr by flow cytometry analysis; design: scale not given: the % may be the effect or the level left
Mus musculus [3] = experiment: Immunosuppressive activity in anti-CD3-stimulated mouse assessed as reduction in IL-2 level in whole blood at 50 mg/kg, po measured after 1 hr by flow cytometry analysis; design: scale not given: the % may be the effect or the level left
Mus musculus [4] = experiment: Immunosuppressive activity in BALB/c mouse allografted with C57 mouse cardiac tissue assessed as suppression of graft rejection by measuring graft median survival time at 4 mg/kg, IM
Mus musculus [5] = experiment: Immunosuppressive activity in anti-CD3-stimulated mouse assessed as reduction in IL-2 level in whole blood at 55 mg/kg, po measured after 1 hr by flow cytometry analysis; design: scale not given: the % may be the effect or the level left
Mus musculus [6] = experiment: Immunosuppressive activity in anti-CD3-stimulated mouse assessed as reduction in IL-2 level in whole blood at 55 mg/kg, po measured after 8 hrs by flow cytometry analysis; design: scale not given: the % may be the effect or the level left
Mus musculus [7] = experiment: Immunosuppressive activity in BALB/c mouse allografted with C57 mouse cardiac tissue assessed as suppression of graft rejection by measuring graft median survival time at 112 mg/kg, po in presence of tacrolimus
Mus musculus [8] = experiment: Immunosuppressive activity in anti-CD3-stimulated mouse assessed as reduction in IL-2 level in whole blood at 55 mg/kg, po measured after 4 hrs by flow cytometry analysis; design: scale not given: the % may be the effect or the level left
Mus musculus [9] = experiment: Immunosuppressive activity in BALB/c mouse allografted with C57 mouse cardiac tissue assessed as suppression of graft rejection by measuring graft median survival time at 112 mg/kg, po
Mus musculus [10] = experiment: Immunosuppressive activity in BALB/c mouse allografted with C57 mouse cardiac tissue assessed as suppression of graft rejection by measuring graft median survival time at 83 mg/kg, po in presence of tacrolimus
Mus musculus [11] = experiment: Immunosuppressive activity in anti-CD3-stimulated mouse assessed as reduction in IL-2 level in whole blood at 40 mg/kg, po measured after 1 hr by flow cytometry analysis; design: scale not given: the % may be the effect or the level left
Mus musculus [12] = experiment: Immunosuppressive activity in BALB/c mouse allografted with C57 mouse cardiac tissue assessed as suppression of graft rejection by measuring graft median survival time at 83 mg/kg, po
Mus musculus [13] = experiment: Immunosuppressive activity in anti-CD3-stimulated mouse assessed as reduction in IL-2 level in whole blood at 40 mg/kg, po measured after 8 hrs by flow cytometry analysis; design: scale not given: the % may be the effect or the level left
Mus musculus [14] = experiment: Immunosuppressive activity in anti-CD3-stimulated mouse assessed as reduction in IL-2 level in whole blood at 40 mg/kg, po measured after 4 hrs by flow cytometry analysis; design: scale not given: the % may be the effect or the level left
Mus musculus [15] = experiment: Immunosuppressive activity in anti-CD3-stimulated mouse assessed as reduction in IL-2 level in whole blood at 25 mg/kg, po measured after 4 hr by flow cytometry analysis; design: scale not given: the % may be the effect or the level left
Mus musculus [16] = experiment: Immunosuppressive activity in anti-CD3-stimulated mouse assessed as reduction in IL-2 level in whole blood at 25 mg/kg, po measured after 1 hr by flow cytometry analysis; design: scale not given: the % may be the effect or the level left
Mus musculus [17] = experiment: Immunosuppressive activity in anti-CD3-stimulated mouse assessed as reduction in IL-2 level in whole blood at 25 mg/kg, po measured after 8 hr by flow cytometry analysis; design: scale not given: the % may be the effect or the level left
Mus musculus [18] = experiment: Immunosuppressive activity in anti-CD3-stimulated mouse assessed as reduction in IL-2 level in whole blood at 65 mg/kg, po measured after 4 hrs by flow cytometry analysis; design: scale not given: the % may be the effect or the level left
Mus musculus [19] = experiment: Immunosuppressive activity in anti-CD3-stimulated mouse assessed as reduction in IL-2 level in whole blood at 65 mg/kg, po measured after 8 hrs by flow cytometry analysis; design: scale not given: the % may be the effect or the level left
Mus musculus [20] = experiment: Immunosuppressive activity in anti-CD3-stimulated mouse assessed as reduction in IL-2 level in whole blood at 65 mg/kg, po measured after 1 hr by flow cytometry analysis; design: scale not given: the % may be the effect or the level left

COc1c(C)c2c(c(O)c1C/C=C(\C)CCC(=O)OCCN1CCOCC1)C(=O)OC2 [MYCOPHENOLATE MOFETIL]
Activity (Mus musculus [1]): 52.3%
Activity (Mus musculus [2]): 81.7%
Activity (Mus musculus [3]): 3.4%

C=CC[C@@H]1/C=C(\C)C[C@H](C)C[C@H](OC)[C@H]2O[C@@](O)(C(=O)C(=O)N3CCCC[C@H]3C(=O)O[C@H](/C(C)=C/[C@@H]3CC[C@@H](O)[C@H](OC)C3)[C@H](C)[C@@H](O)CC1=O)[C@H](C)C[C@@H]2OC [TACROLIMUS ANHYDROUS]
MST (Mus musculus [4]): 8 days

NC(=O)c1ncn([C@@H]2O[C@H](COC(=O)[C@@H](N)CC(=O)OCc3ccccc3)[C@@H](O)[C@H]2O)c1O.O=C(O)C(F)(F)F
Activity (Mus musculus [5]): 77%
Activity (Mus musculus [6]): 27.7%
MST (Mus musculus [7]): 15.5 days
Activity (Mus musculus [8]): 32.7%
MST (Mus musculus [9]): 11 days

CC(C)(C)C(=O)NC(=O)c1ncn([C@@H]2O[C@H](COC(=O)C(C)(C)C)[C@@H](O)[C@H]2O)c1O
MST (Mus musculus [10]): 55 days
Activity (Mus musculus [11]): 19.4%
MST (Mus musculus [12]): 11 days
Activity (Mus musculus [13]): 61.3%
Activity (Mus musculus [14]): 64.4%

NC(=O)c1ncn([C@@H]2O[C@H](CO)[C@@H](O)[C@H]2O)c1O [MIZORIBINE]
Activity (Mus musculus [15]): 8.6%
Activity (Mus musculus [16]): 55.6%
Activity (Mus musculus [17]): 7.3%

CC(C)CCOC(=O)C[C@H](NP(=O)(OC[C@H]1O[C@@H](n2cnc(C(N)=O)c2O)[C@H](O)[C@@H]1O)Oc1ccccc1)C(=O)OCCC(C)C (stereo not given in full)
Activity (Mus musculus [18]): 18.3%
Activity (Mus musculus [19]): 17.5%
Activity (Mus musculus [20]): 14.7%
